{"source": "paper PMC8213057", "about": "“Targeting ALK2: An Open Science Approach to Developing Therapeutics for the Treatment of Diffuse Intrinsic Pontine Glioma” (Journal of Medicinal Chemistry, 2020)", "key": {"PIM3": {"target": "PIM3 (Homo sapiens, UniProt Q86V86)", "conditions": "1 μM; Run 1, Run 2"}, "FGFR2": {"target": "FGFR2 (Homo sapiens, UniProt P21802)", "sequence (P21802 22-821)": "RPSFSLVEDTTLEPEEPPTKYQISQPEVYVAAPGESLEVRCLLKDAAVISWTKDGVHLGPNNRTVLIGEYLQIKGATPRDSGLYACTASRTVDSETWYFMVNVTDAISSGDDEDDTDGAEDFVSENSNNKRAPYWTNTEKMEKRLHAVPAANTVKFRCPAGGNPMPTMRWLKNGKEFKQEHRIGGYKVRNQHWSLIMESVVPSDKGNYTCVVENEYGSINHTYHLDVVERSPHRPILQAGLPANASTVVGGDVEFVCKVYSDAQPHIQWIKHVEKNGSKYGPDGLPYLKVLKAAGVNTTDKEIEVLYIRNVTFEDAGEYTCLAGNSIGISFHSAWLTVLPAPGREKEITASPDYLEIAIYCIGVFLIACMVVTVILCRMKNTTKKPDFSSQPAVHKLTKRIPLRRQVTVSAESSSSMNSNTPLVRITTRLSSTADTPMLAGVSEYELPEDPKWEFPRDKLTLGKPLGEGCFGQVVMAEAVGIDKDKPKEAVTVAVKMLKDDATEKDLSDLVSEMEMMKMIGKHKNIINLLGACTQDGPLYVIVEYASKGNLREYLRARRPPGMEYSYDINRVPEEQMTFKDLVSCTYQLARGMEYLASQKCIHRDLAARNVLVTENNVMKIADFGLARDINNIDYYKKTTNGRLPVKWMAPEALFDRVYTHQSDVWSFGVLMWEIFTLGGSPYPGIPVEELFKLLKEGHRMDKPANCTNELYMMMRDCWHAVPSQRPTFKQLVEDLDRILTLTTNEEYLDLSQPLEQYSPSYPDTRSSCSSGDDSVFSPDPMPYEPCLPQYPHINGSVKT", "conditions": "1 μM; Run 1, Run 2"}, "SRMS": {"target": "SRMS (Homo sapiens, UniProt Q9H3Y6)", "sequence (Q9H3Y6 whole entry)": "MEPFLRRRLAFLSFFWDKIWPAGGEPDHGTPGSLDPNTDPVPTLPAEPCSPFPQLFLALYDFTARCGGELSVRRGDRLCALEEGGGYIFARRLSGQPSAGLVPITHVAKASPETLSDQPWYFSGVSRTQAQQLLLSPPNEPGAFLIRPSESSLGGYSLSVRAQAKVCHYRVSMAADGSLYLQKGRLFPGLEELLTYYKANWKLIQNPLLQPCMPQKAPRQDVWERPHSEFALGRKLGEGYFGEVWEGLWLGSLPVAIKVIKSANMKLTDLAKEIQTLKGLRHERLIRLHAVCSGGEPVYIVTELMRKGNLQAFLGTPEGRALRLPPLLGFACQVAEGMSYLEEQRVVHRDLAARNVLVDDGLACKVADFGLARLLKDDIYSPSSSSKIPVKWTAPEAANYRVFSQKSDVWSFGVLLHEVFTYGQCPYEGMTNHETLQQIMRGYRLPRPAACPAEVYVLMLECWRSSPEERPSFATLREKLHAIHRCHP", "assay": "biochemical", "conditions": "read-out: % enzyme activity, 1 μM; Run 1, Run 2"}, "BTK": {"target": "BTK (Homo sapiens, UniProt Q06187)", "assay": "biochemical", "conditions": "read-out: % enzyme activity, 1 μM; Run 1, Run 2"}, "DCAMKL2": {"target": "T1, DCAMKL2 (Homo sapiens, UniProt Q8N568)", "T1 sequence (Q8N568 1-766)": "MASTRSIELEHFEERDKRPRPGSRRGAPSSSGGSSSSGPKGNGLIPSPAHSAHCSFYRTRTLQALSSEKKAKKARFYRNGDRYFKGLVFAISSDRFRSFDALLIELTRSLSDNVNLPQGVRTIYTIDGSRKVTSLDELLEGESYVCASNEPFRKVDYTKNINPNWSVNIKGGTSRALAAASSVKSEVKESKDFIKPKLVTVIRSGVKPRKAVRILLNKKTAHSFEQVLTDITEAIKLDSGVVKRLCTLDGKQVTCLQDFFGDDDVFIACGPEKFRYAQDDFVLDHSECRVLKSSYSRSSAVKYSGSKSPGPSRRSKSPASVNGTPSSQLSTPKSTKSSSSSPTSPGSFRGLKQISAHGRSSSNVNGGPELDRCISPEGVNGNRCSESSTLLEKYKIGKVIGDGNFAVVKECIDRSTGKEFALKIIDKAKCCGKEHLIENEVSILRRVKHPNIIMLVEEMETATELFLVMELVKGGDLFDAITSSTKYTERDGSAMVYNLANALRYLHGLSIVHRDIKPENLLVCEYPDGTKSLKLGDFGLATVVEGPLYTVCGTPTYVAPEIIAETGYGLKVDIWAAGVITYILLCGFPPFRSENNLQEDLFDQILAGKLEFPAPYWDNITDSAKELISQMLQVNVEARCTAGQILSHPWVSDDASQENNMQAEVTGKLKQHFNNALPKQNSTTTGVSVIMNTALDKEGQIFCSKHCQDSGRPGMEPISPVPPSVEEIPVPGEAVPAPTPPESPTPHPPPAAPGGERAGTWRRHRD", "conditions": "1 μM; Run 1, Run 2"}, "PEAK1": {"target": "PEAK1 (Homo sapiens, UniProt Q9H792)", "conditions": "1 μM; Run 1, Run 2"}, "ARAF": {"target": "T2, ARAF (Homo sapiens, UniProt P10398)", "T2 sequence (P10398 1-606)": "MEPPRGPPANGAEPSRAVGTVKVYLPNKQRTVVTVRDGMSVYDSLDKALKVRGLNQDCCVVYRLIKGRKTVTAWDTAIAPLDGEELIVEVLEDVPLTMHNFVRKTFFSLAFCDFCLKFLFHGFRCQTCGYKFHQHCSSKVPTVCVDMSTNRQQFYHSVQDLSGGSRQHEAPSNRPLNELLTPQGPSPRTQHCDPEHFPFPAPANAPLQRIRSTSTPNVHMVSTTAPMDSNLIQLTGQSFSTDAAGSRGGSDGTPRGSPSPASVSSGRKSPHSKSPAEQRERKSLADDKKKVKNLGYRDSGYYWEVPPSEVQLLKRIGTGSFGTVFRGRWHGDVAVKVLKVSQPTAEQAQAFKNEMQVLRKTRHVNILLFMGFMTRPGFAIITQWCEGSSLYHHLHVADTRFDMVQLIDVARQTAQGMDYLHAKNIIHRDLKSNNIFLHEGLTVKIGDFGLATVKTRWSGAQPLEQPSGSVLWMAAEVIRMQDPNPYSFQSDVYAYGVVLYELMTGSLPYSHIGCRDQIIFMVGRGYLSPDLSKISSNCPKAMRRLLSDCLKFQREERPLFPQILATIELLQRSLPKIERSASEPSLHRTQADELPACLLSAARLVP", "conditions": "1 μM; Run 1, Run 2"}, "TYRO3/SKY": {"target": "T3, TYRO3/SKY (Homo sapiens, UniProt Q06418)", "T3 sequence (Q06418 41-890)": "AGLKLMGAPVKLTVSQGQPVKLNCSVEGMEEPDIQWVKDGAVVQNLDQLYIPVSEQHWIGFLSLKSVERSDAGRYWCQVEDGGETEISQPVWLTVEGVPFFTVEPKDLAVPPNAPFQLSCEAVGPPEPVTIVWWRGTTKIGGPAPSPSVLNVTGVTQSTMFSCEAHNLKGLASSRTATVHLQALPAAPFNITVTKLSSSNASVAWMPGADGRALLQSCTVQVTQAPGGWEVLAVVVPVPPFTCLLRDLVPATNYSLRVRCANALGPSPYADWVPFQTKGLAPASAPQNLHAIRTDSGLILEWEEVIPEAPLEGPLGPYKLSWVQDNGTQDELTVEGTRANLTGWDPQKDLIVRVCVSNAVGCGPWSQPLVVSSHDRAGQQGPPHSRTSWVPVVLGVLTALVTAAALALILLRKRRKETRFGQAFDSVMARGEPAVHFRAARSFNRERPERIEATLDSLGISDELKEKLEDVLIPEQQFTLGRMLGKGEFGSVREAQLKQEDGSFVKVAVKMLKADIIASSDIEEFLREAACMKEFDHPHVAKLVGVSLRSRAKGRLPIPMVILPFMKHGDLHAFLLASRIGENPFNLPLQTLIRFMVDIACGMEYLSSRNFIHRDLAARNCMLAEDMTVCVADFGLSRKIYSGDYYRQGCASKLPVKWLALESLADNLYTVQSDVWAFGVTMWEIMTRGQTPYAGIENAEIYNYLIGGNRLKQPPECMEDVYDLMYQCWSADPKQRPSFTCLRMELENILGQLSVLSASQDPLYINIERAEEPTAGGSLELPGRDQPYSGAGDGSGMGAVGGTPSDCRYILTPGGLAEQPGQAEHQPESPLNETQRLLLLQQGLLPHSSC", "assay": "biochemical", "conditions": "read-out: % enzyme activity, 1 μM; Run 1, Run 2"}, "DAPK1": {"target": "DAPK1 (Homo sapiens, UniProt P53355)", "sequence (P53355 whole entry)": "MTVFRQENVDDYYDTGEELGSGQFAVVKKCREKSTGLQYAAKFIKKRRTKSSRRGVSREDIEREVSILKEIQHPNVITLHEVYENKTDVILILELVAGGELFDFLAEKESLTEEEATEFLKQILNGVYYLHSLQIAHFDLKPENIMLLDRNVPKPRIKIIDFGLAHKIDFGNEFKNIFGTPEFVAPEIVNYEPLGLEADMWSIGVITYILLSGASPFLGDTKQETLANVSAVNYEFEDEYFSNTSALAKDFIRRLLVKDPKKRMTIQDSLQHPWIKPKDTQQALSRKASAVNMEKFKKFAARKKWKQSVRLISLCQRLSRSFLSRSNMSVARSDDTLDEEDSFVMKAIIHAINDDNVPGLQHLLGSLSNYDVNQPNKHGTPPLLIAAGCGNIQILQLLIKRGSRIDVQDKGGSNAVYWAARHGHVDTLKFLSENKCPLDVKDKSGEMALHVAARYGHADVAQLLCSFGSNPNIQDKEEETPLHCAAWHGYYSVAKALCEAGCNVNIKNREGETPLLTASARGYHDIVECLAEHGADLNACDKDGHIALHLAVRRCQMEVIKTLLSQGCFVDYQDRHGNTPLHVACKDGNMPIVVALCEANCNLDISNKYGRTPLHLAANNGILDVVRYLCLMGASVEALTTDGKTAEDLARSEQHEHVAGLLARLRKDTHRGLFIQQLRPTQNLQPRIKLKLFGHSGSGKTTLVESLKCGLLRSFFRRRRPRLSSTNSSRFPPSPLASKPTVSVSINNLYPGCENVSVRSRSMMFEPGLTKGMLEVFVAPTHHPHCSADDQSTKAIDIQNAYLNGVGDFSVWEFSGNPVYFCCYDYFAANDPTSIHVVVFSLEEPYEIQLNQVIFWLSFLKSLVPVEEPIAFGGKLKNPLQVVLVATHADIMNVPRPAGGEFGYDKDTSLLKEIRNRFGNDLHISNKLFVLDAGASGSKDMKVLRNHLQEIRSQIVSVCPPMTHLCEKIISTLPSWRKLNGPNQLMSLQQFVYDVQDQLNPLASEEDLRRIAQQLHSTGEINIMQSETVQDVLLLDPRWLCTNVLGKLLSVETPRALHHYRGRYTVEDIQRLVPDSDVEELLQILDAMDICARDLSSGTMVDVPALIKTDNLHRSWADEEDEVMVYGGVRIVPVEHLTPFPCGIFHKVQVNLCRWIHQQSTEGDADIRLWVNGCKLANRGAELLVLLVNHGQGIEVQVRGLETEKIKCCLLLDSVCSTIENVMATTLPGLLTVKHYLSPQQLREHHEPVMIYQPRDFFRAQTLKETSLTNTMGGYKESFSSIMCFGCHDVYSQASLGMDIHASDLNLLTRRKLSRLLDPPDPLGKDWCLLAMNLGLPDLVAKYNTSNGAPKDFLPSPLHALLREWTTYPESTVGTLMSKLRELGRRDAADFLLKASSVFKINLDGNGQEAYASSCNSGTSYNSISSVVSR", "assay": "biochemical", "conditions": "read-out: % enzyme activity, 1 μM; Run 1, Run 2"}, "CDK1/cyclin B": {"target": "CDK1/cyclin B (Homo sapiens, UniProt P06493)", "sequence (P06493 whole entry)": "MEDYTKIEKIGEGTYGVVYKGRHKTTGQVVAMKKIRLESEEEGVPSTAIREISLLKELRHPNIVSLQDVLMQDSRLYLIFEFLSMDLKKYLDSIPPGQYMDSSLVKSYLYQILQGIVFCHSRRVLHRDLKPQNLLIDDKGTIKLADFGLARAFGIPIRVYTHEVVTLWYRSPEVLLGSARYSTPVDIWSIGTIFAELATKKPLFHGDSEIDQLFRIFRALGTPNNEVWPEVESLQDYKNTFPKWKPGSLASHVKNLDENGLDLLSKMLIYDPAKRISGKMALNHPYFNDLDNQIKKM", "sequence (P14635 whole entry partner)": "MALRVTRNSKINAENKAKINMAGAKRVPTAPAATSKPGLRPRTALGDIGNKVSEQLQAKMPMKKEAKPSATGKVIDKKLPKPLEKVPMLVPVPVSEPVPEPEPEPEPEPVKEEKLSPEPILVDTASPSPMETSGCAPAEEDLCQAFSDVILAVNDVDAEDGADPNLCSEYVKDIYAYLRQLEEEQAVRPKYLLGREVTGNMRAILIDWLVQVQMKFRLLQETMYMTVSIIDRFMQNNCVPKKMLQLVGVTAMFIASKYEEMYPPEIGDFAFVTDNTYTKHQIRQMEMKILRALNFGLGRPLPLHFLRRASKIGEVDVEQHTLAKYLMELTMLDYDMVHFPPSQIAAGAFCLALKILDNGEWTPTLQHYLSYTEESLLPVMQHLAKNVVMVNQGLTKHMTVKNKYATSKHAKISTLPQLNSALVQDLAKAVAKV", "assay": "biochemical", "conditions": "read-out: % enzyme activity, 1 μM; Run 1, Run 2"}, "YES/YES1": {"target": "YES/YES1 (Homo sapiens, UniProt P07947)", "sequence (P07947 whole entry)": "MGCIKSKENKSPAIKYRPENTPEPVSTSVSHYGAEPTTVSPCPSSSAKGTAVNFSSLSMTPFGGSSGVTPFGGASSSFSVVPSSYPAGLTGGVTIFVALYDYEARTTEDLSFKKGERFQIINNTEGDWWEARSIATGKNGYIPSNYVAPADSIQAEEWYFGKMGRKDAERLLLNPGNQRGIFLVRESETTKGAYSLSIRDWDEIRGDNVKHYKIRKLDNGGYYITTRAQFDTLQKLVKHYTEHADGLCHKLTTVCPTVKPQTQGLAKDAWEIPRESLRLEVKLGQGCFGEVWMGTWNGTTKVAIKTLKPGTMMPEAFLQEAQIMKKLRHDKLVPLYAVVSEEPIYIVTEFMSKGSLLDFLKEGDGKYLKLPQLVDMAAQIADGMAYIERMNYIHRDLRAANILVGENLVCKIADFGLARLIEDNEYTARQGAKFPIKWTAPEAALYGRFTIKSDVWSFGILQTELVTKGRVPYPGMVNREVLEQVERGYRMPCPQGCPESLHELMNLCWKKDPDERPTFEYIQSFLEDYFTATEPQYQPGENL", "conditions": "1 μM; Run 1, Run 2"}, "CAMKK2": {"target": "CAMKK2 (Homo sapiens, UniProt Q96RR4)", "sequence (Q96RR4 whole entry)": "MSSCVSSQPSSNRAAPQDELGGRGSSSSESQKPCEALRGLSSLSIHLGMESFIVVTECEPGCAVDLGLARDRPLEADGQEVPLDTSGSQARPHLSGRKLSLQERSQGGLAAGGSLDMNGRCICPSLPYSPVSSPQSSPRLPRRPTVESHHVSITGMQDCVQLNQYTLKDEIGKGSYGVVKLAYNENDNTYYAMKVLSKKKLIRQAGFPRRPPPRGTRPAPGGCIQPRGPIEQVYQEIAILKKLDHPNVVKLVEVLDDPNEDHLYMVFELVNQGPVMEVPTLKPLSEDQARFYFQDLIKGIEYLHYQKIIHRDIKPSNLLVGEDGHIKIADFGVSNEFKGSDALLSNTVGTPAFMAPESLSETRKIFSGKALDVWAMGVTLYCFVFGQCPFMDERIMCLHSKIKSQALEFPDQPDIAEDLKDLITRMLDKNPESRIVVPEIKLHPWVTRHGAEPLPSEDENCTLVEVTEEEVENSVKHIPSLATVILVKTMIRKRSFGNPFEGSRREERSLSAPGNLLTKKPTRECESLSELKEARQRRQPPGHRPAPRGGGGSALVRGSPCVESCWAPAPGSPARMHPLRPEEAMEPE", "assay": "biochemical", "conditions": "read-out: % enzyme activity, 1 μM; Run 1, Run 2"}}}
{"smiles": "COc1cc(-c2cncc(-c3ccc(N4C[C@@H](C)N(C)[C@@H](C)C4)cc3)c2C)cc(F)c1C(N)=O", "note": "[Compound 26c, 2-Fluoro-6-methoxy-4-(4-methyl-5-(4-((3R,5S)-3,4,5-trimethylpiperazin-1-yl)phenyl)pyridin-3-yl)benzamide]", "values": [{"measurement": "% enzyme activity", "setting": "PIM3", "result": 106.19, "unit": "%"}, {"measurement": "% enzyme activity", "setting": "FGFR2", "result": 90.89, "unit": "%"}, {"measurement": "remaining activity at 1 µM", "setting": "SRMS", "result": 96.1, "unit": "%"}, {"measurement": "remaining activity at 1 µM", "setting": "BTK", "result": 96.5, "unit": "%"}, {"measurement": "% enzyme activity", "setting": "DCAMKL2", "result": 82.24, "unit": "%"}, {"measurement": "% enzyme activity", "setting": "PEAK1", "result": 95.56, "unit": "%"}, {"measurement": "% enzyme activity", "setting": "ARAF", "result": 43.32, "unit": "%"}, {"measurement": "remaining activity at 1 µM", "setting": "TYRO3/SKY", "result": 94.5, "unit": "%"}, {"measurement": "remaining activity at 1 µM", "setting": "DAPK1", "result": 98.8, "unit": "%"}, {"measurement": "remaining activity at 1 µM", "setting": "CDK1/cyclin B", "result": 94, "unit": "%"}, {"measurement": "% enzyme activity", "setting": "YES/YES1", "result": 108.87, "unit": "%"}, {"measurement": "remaining activity at 1 µM", "setting": "CAMKK2", "result": 76.4, "unit": "%"}]}
{"smiles": "COc1cc(-c2cncc(-c3ccc(N4CCN(C)CC4)cc3)c2C)cc(F)c1C(N)=O", "note": "[Compound 26a, 2-Fluoro-6-methoxy-4-(4-methyl-5-(4-(4-methylpiperazin-1-yl)phenyl)pyridin-3-yl)benzamide]", "values": [{"measurement": "% enzyme activity", "setting": "PIM3", "result": 99.10, "unit": "%"}, {"measurement": "% enzyme activity", "setting": "FGFR2", "result": 95.46, "unit": "%"}, {"measurement": "remaining activity at 1 µM", "setting": "SRMS", "result": 96.6, "unit": "%"}, {"measurement": "remaining activity at 1 µM", "setting": "BTK", "result": 95.3, "unit": "%"}, {"measurement": "% enzyme activity", "setting": "DCAMKL2", "result": 62.07, "unit": "%"}, {"measurement": "% enzyme activity", "setting": "PEAK1", "result": 97.59, "unit": "%"}, {"measurement": "% enzyme activity", "setting": "ARAF", "result": 28.83, "unit": "%"}, {"measurement": "remaining activity at 1 µM", "setting": "TYRO3/SKY", "result": 84.1, "unit": "%"}, {"measurement": "remaining activity at 1 µM", "setting": "DAPK1", "result": 95.7, "unit": "%"}, {"measurement": "remaining activity at 1 µM", "setting": "CDK1/cyclin B", "result": 95.7, "unit": "%"}, {"measurement": "% enzyme activity", "setting": "YES/YES1", "result": 104.56, "unit": "%"}, {"measurement": "remaining activity at 1 µM", "setting": "CAMKK2", "result": 71.7, "unit": "%"}]}
